Data reported in patent publication US20260265239A1, “CRYSTAL FORM OF 2,6-PIPERIDINEDIONE COMPOUND, AND PREPARATION METHOD THEREFOR AND USE THEREOF” (ZHANGZHOU PIEN TZE HUANG PHARMACEUTICAL CO., LTD., priority 2023, published 2026).
Structures can show the parent of a compound that is named as a salt.

Columns and labels:
[1] = Pharmacokinetic evaluation in mice; assay type: in vivo, C57BL/6 or C57 male mice
Description: C57BL/6 or C57 male mice were selected as the test animals for this study. The LC/MS/MS method was employed to quantitatively determine the plasma drug concentrations at various time points after intravenous injection or intragastric administration of the test compound, aiming to evaluate the pharmacokinetic characteristics of the compound of the present disclosure in mice.
C57BL/6 or C57 mice (male, 20 to 30 g, 7 to 10 weeks old, Beijing Vital River).
A clear solution of the test compound was injected intravenously into the tail vein of C57BL/6 mice (fasted overnight) (vehicle: 10% DMSO/10% solutol/80% H2O), or administered intragastrically to C57 mice (fed). […] The mixture was thoroughly vortexed and mixed, and centrifuged at 6000 g for 3 minutes at 2 to 8° C. […] The mixture was thoroughly vortexed and mixed, and centrifuged at 6000 g for 3 minutes at 2 to 8° C. Plasma drug concentrations were determined by the LC-MS/MS method, and relevant pharmacokinetic parameters were calculated using Phoenix WinNonlin 8.2.0 pharmacokinetic software with non-compartmental model linear-log trapezoidal method.

[2] = Pharmacokinetic evaluation in beagle dogs; assay type: in vivo
Description: Male beagle dogs were selected as the experimental animals in this study. The LC/MS/MS method was employed to quantitatively determine the plasma drug concentrations at different time points after intravenous injection or intragastric administration of the test compound, aiming to evaluate the pharmacokinetic characteristics of the compound of the present disclosure in beagle dogs.
Beagle dogs (male, 7 to 10 kg, Beijing Mars Biotechnology Co., Ltd.).
A solution of the test compound was slowly injected intravenously into beagle dogs (fed) via the peripheral vein (vehicle: 5% DMSO/10% Solutol/85% H2O), or administered intragastrically to beagle dogs (fed). For intravenous administration, 0.5 mL of blood was collected from the peripheral vein at 0.083, 0.25, 0.5, 1, 2, 4, 6, 8, and 24 h after administration, placed in EDTA-2K anticoagulant tubes, and centrifuged at 3200 g for 10 minutes at 2 to 8° C. to separate the supernatant. For intragastric administration, 0.5 mL of blood was collected from the peripheral vein at 0.083, 0.25, 0.5, 1, 2, 4, 6, 8, and 24 h after administration, placed in EDTA-2K anticoagulant tubes, and centrifuged at 3200 g for 10 minutes at 2 to 8° C. to separate the supernatant. Plasma drug concentrations were determined by the LC-MS/MS method, and relevant pharmacokinetic parameters were calculated using Phoenix WinNonlin 6.3 or 8.3.5 pharmacokinetic software with non-compartmental model linear-log trapezoidal method.

[3] = system: human diffuse large B-cell lymphoma TMD-8 cells; assay: BALB/c nude mouse subcutaneous xenograft tumor model of human diffuse large B-cell lymphoma TMD-8 cells; assay type: in vivo, BALB/c nude mice; conditions: for Tumor Volume (Day 0) / Tumor Volume (Day 22): mean ± SEM
Protocol: The antitumor effect of the test compound was evaluated using a BALB/c nude mouse subcutaneous xenograft tumor model of human diffuse large B-cell lymphoma TMD-8 cells.
• 1. Experimental animals: BALB/c nude mice, female, 6 to 8 weeks old. Vital River Laboratory Animal Technology Co., Ltd. • 2. Cell line: Human diffuse large B-cell lymphoma TMD-8 cells (purchased from Shanghai Huzhen Industrial Co., Ltd.).
Cell culture: Routine cell culture was conducted in RPMI-1640 medium containing 10% fetal bovine serum under 5% CO2 at 37° C. Cells were passaged based on cell growth conditions at a passage ratio of 1:3 to 1:4.
Tumor cell inoculation and grouping: TMD-8 cells in the logarithmic growth phase were harvested, counted, and resuspended in a mixture of 50% serum-free RPMI-1640 medium and 50% Matrigel. The cell concentration was adjusted to 4.0×10^7 cells/mL. The cell suspension was placed in an ice box, aspirated using a 1-mL syringe, and injected subcutaneously into the right forelimb axilla of nude mice at 200 μL per animal (0.8×10^7 cells/mouse) to establish the TMD-8 xenograft tumor model. Administration was started when the average tumor volume reached approximately 160 mm^3. The day of grouping was designated as Day 1 (D1) of the experiment, and administration was started based on animal body weight.
The pharmacodynamic experiment was conducted with a 7-day administration cycle, where the test compound was administered once daily intragastrically at 24-hour intervals, for a total of three cycles. During the experiment, animal body weight and tumor size were measured twice a week, and clinical symptoms were observed and recorded daily.
The test compound was administered at doses of 10 mg/kg, 30 mg/kg, and 100 mg/kg, with the vehicle being 10% DMSO/10% Solutol HS15/80% water. Tumor volume (TV) was calculated using the formula: ½×a×b^2, where a and b represent the measured length and width of the tumor, respectively. The tumor growth inhibition rate (TGI, %) was calculated using the formula: TGI (%)=[1−(average tumor volume at the end of administration in a treatment group−average tumor volume at the beginning of administration in this treatment group)/(average tumor volume at the end of treatment in the vehicle control group−average tumor volume at the beginning of treatment in the vehicle control group)]×100%. The relative tumor proliferation rate (T/C, %) was calculated using the formula: T/C %=TRTV/CRTV[…] (TRTV: mean RTV of the treatment group; CRTV: mean RTV of the negative control group). The relative tumor volume (RTV) was calculated based on the tumor measurement results, with the formula RTV=Vt/V0, where V0 is the tumor volume measured at the time of grouping administration (i.e., Day 1), and Vt is the tumor volume at a certain measurement time. TRTV and CRTV were derived from data on the same day.
The experimental data were calculated and subjected to relevant statistical processing using Microsoft Office Excel 2007 software. Unless otherwise specified, the data were expressed as mean±standard error (Mean±SE), and comparisons between groups were performed using t-tests.

[4] = Intragastric administration (10 mg/kg) (fed)
[5] = Intragastric administration, 5 mg/kg
[6] = Intragastric administration, 15 mg/kg
[7] = Intravenous Injection (0.5 mg/kg)
[8] = 10 mg/kg intragastric once daily
[9] = 30 mg/kg intragastric once daily
[10] = 100 mg/kg intragastric once daily

Compound: O=C1CCC(c2noc3ccc4c(NC(=O)CN5CCN(C[C@H]6CC[C@H](n7cc(NC(=O)c8coc(-c9ccnc(NCC%10CC%10)c9)n8)c(C(F)F)n7)CC6)CC5)cccc4c23)C(=O)N1 (stereo partly drawn) [Hydrochloride of Compound of Formula (I)]
- Area Under the Drug-Time Curve (0-inf) [1, 4]: 4.47 µM·h
- Peak Concentration [1, 4]: 0.54 µM
- Time to Peak Concentration [1, 4]: 1.00 h
- Area Under the Drug-Time Curve (0-inf) ([1]; Intravenous Injection (2 mg/kg) (fasted)): 5.40 µM·h
- Area Under the Drug-Time Curve (0-inf) [2, 5]: 3.20 µM·h
- Peak Concentration [2, 5]: 0.41 µM
- Time to Peak Concentration [2, 5]: 4.00 h
- Area Under the Drug-Time Curve (0-inf) [2, 6]: 8.02 µM·h
- Peak Concentration [2, 6]: 0.87 µM
- Time to Peak Concentration [2, 6]: 4.00 h
- Apparent Distribution Volume [2, 7]: 5.83 L/kg
- Area Under the Drug-Time Curve (0-inf) [2, 7]: 0.44 µM·h
- T/C (Day 22) [3, 8]: 58%
- TGI (Day 22) [3, 8]: 49%
- Tumor Volume (Day 0) [3, 8]: 161 ± 12 mm^3
- Tumor Volume (Day 22) [3, 8]: 714 ± 153 mm^3
- T/C (Day 22) [3, 9]: 34%
- TGI (Day 22) [3, 9]: 75%
- Tumor Volume (Day 0) [3, 9]: 160 ± 9 mm^3
- Tumor Volume (Day 22) [3, 9]: 430 ± 98 mm^3
- T/C (Day 22) [3, 10]: 23%
- TGI (Day 22) [3, 10]: 88%
- Tumor Volume (Day 0) [3, 10]: 160 ± 8 mm^3
- Tumor Volume (Day 22) [3, 10]: 291 ± 70 mm^3
